Experimental data as given in PMC9653409, “Generative deep learning enables the discovery of a potent and selective RIPK1 inhibitor” (Nature Communications, 2022).
Where two headings read alike, the source gives them in different places.

Experiments:
Assay in all cases: Kinase inhibitory activity profiling of RI-962@10 µM (406 kinases, Eurofins)
Format in all cases: biochemical
[1] = molecular target: panel of human kinases (kinase named in endpoint) (Homo sapiens, UniProt P16234, D842V); details: 10 µM; read-out: Activity (%), PDGFRα(D842V)(h)
Procedure, shortened: (§1)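 Radiometric filter-binding kinase assays: enzyme preincubated 15 min with compound in 8 mM MOPS pH 7.0, 0.2 mM EDTA, 250 μM peptide substrate, 10 mM magnesium acetate, 10 μM [γ-33P]-ATP. Reaction started with Mg/ATP, run 40 min at room temperature, stopped with phosphoric acid; 33P incorporation read by scintillation counting. Other kinases by similar protocols.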

[2] = molecular target: panel of human kinases (kinase named in endpoint) (Homo sapiens, UniProt Q5MAI5); details: 10 µM; read-out: Activity (%), CDKL4(h)
Procedure, shortened: as §1

[3] = molecular target: panel of human kinases (kinase named in endpoint) (Homo sapiens, UniProt Q96QT4); details: 10 µM; read-out: Activity (%), ChaK1(h)
Procedure, shortened: as §1

[4] = molecular target: panel of human kinases (kinase named in endpoint) (Homo sapiens, UniProt P29322); details: 10 µM; read-out: Activity (%), EphA8(h)
Procedure, shortened: as §1

[5] = molecular target: panel of human kinases (kinase named in endpoint) (Homo sapiens, UniProt Q02156); details: 10 µM; read-out: Activity (%), PKCε(h)
Procedure, shortened: as §1

[6] = molecular target: panel of human kinases (kinase named in endpoint) (Homo sapiens, UniProt Q8N4C8); details: 10 µM; read-out: Activity (%), MINK(h)
Procedure, shortened: as §1

[7] = molecular target: panel of human kinases (kinase named in endpoint) (Homo sapiens, UniProt P06213); details: 10 µM
Procedure, shortened: as §1

[8] = molecular target: panel of human kinases (kinase named in endpoint) (Homo sapiens, UniProt P35916); details: 10 µM; read-out: Activity (%), Flt4(h)
Procedure, shortened: as §1

[9] = molecular target: panel of human kinases (kinase named in endpoint) (Homo sapiens, UniProt P05771); details: 10 µM; read-out: Activity (%), PKCβI(h)
Procedure, shortened: as §1

[10] = molecular target: panel of human kinases (kinase named in endpoint) (Homo sapiens, UniProt O60331); details: 10 µM; read-out: Activity (%), PIP5K1g(h)
Procedure, shortened: as §1

[11] = molecular target: panel of human kinases (kinase named in endpoint) (Homo sapiens, UniProt Q9H2X6); details: 10 µM; read-out: Activity (%), HIPK2(h)
Procedure, shortened: as §1

[12] = molecular target: panel of human kinases (kinase named in endpoint) (Homo sapiens, UniProt Q96PY6); details: 10 µM; read-out: Activity (%), NEK1(h)
Procedure, shortened: as §1

[13] = molecular target: panel of human kinases (kinase named in endpoint) (Homo sapiens, UniProt Q00534); details: 10 µM; read-out: Activity (%), CDK6/cyclinD3(h)
Procedure, shortened: as §1

[14] = molecular target: panel of human kinases (kinase named in endpoint) (Homo sapiens, UniProt Q00535); details: 10 µM
Procedure, shortened: as §1

[15] = molecular target: panel of human kinases (kinase named in endpoint) (Homo sapiens, UniProt P53671); details: 10 µM; read-out: Activity (%), LIMK2(h)
Procedure, shortened: as §1

[16] = molecular target: panel of human kinases (kinase named in endpoint) (Homo sapiens, UniProt Q9P286); details: 10 µM; read-out: Activity (%), PAK5(h)
Procedure, shortened: as §1

[17] = molecular target: panel of human kinases (kinase named in endpoint) (Homo sapiens, UniProt P37173); details: 10 µM; read-out: Activity (%), TGFBR2(h)
Procedure, shortened: as §1

[18] = molecular target: panel of human kinases (kinase named in endpoint) (Homo sapiens, UniProt P10721); details: 10 µM; read-out: Activity (%), cKit(h)
Procedure, shortened: as §1

[19] = molecular target: panel of human kinases (kinase named in endpoint) (Homo sapiens, UniProt P11309); details: 10 µM; read-out: Activity (%), Pim-1(h)
Procedure, shortened: as §1

[20] = molecular target: panel of human kinases (kinase named in endpoint) (Homo sapiens, UniProt Q99683); details: 10 µM; read-out: Activity (%), ASK1(h)
Procedure, shortened: as §1

[21] = molecular target: panel of human kinases (kinase named in endpoint) (Homo sapiens, UniProt P78368); details: 10 µM; read-out: Activity (%), CK1γ2(h)
Procedure, shortened: as §1

[22] = molecular target: panel of human kinases (kinase named in endpoint) (Homo sapiens, UniProt O75914); details: 10 µM; read-out: Activity (%), PAK3(h)
Procedure, shortened: as §1

[23] = molecular target: panel of human kinases (kinase named in endpoint) (Homo sapiens, UniProt P54646); details: 10 µM; read-out: Activity (%), AMPKα2(h)
Procedure, shortened: as §1

[24] = molecular target: panel of human kinases (kinase named in endpoint) (Homo sapiens, UniProt Q9NYY3); details: 10 µM; read-out: Activity (%), Snk(h)
Procedure, shortened: as §1

[25] = molecular target: panel of human kinases (kinase named in endpoint) (Homo sapiens, UniProt Q14289); details: 10 µM; read-out: Activity (%), Pyk2(h)
Procedure, shortened: as §1

Sequence of panel of human kinases (kinase named in endpoint) (Homo sapiens, UniProt Q00535) (Q00535 whole entry): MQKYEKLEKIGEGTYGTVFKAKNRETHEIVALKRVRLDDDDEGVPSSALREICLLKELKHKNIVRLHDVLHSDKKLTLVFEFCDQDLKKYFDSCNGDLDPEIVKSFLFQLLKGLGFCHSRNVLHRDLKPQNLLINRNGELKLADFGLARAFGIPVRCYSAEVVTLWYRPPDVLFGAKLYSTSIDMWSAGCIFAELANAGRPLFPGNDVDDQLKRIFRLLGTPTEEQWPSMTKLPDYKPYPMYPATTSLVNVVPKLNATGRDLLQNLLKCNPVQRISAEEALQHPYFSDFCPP
Sequence of panel of human kinases (kinase named in endpoint) (Homo sapiens, UniProt P06213) (P06213 28-1382): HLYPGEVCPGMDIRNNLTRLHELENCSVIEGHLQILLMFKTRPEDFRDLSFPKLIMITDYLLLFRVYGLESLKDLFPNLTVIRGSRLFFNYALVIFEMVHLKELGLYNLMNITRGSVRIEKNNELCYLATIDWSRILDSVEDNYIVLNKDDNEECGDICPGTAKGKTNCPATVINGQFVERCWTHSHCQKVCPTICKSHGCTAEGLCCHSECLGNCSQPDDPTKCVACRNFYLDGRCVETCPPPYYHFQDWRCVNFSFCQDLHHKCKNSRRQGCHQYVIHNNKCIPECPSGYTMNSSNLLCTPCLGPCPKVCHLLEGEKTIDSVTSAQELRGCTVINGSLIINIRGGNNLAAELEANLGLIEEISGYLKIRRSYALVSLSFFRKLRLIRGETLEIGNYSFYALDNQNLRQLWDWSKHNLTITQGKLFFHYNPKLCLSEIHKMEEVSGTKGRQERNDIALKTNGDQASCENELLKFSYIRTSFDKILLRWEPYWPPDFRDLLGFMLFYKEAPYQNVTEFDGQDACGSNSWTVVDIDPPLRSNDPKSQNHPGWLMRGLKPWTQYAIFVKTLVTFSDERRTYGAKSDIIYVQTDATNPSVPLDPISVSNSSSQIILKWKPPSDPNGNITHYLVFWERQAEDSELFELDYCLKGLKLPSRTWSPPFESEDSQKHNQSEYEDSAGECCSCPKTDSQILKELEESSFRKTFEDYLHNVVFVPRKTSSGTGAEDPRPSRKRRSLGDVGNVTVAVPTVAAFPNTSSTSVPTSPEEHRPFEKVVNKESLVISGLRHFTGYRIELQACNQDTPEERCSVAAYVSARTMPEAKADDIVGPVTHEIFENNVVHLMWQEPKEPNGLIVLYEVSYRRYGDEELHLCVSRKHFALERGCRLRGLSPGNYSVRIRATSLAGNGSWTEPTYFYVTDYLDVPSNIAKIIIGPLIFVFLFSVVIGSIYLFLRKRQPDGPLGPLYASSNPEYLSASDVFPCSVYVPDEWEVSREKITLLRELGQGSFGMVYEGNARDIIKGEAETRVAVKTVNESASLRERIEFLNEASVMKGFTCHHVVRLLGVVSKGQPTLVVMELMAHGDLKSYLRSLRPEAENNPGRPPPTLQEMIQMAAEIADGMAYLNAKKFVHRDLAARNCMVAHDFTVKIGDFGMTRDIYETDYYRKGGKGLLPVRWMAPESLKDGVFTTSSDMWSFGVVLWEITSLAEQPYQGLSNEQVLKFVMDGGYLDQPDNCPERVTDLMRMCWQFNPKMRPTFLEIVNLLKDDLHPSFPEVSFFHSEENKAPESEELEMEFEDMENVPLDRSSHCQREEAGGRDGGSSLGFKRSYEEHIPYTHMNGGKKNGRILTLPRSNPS
Sequence of panel of human kinases (kinase named in endpoint) (Homo sapiens, UniProt P54646) (P54646 whole entry): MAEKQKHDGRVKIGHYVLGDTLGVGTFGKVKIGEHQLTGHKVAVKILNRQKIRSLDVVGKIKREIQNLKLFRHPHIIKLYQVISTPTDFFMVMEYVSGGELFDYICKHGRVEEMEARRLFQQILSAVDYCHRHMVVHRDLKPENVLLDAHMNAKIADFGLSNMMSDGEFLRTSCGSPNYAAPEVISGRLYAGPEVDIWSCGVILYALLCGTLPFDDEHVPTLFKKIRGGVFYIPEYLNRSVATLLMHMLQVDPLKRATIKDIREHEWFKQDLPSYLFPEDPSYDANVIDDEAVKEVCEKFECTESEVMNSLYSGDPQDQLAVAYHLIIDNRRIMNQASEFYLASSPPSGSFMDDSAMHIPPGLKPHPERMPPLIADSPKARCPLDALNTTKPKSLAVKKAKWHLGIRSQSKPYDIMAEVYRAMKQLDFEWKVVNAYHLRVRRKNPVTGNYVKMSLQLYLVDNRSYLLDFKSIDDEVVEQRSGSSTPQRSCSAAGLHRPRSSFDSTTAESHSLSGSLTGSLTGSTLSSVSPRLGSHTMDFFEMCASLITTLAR
Sequence of panel of human kinases (kinase named in endpoint) (Homo sapiens, UniProt Q02156) (Q02156 whole entry): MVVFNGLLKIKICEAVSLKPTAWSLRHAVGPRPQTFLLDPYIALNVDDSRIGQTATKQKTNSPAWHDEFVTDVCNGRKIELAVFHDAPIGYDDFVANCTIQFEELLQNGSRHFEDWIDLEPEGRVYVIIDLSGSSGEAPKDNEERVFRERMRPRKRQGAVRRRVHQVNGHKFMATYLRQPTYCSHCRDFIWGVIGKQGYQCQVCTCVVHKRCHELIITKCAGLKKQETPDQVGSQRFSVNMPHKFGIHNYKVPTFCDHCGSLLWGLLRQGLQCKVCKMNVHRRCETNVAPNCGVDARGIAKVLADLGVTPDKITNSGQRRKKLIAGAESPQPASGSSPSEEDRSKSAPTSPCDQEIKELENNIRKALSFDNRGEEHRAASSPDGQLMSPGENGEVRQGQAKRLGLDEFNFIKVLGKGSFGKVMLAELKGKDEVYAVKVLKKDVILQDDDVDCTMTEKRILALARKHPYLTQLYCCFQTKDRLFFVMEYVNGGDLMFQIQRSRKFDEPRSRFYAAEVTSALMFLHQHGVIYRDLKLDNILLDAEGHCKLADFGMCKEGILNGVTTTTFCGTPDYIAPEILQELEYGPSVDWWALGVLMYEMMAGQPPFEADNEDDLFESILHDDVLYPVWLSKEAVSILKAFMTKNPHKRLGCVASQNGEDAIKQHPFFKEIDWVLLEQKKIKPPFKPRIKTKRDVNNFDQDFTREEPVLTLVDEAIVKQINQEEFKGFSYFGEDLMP
Sequence of panel of human kinases (kinase named in endpoint) (Homo sapiens, UniProt P11309) (P11309 whole entry): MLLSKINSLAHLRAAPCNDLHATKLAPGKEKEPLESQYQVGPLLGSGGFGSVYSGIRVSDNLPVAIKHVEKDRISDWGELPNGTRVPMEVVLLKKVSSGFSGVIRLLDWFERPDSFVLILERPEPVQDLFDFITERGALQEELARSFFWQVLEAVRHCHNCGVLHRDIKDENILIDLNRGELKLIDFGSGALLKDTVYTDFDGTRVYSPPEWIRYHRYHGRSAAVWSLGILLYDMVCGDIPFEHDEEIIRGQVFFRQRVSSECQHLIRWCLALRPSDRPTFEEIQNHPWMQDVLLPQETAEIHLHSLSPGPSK
Sequence of panel of human kinases (kinase named in endpoint) (Homo sapiens, UniProt Q9P286) (Q9P286 whole entry): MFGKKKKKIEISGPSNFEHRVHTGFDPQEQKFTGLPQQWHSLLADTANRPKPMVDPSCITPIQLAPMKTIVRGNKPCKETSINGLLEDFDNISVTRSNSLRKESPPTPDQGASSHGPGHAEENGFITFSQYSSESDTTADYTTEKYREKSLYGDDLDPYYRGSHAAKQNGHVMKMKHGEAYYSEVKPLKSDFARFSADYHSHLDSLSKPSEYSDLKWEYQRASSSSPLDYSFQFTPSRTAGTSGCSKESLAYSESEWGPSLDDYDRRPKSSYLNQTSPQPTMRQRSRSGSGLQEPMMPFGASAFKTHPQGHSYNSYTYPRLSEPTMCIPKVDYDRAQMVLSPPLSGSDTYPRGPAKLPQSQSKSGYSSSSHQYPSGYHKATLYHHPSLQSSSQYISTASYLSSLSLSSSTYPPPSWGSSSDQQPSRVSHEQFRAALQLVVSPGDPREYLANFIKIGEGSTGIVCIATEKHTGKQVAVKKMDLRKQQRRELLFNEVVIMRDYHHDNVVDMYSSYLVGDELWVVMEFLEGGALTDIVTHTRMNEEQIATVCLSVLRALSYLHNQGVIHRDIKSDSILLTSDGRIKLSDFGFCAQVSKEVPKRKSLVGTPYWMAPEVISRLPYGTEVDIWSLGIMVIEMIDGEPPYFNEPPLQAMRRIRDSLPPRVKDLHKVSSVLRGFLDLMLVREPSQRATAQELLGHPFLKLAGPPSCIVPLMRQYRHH
Sequence of panel of human kinases (kinase named in endpoint) (Homo sapiens, UniProt Q14289) (Q14289 whole entry): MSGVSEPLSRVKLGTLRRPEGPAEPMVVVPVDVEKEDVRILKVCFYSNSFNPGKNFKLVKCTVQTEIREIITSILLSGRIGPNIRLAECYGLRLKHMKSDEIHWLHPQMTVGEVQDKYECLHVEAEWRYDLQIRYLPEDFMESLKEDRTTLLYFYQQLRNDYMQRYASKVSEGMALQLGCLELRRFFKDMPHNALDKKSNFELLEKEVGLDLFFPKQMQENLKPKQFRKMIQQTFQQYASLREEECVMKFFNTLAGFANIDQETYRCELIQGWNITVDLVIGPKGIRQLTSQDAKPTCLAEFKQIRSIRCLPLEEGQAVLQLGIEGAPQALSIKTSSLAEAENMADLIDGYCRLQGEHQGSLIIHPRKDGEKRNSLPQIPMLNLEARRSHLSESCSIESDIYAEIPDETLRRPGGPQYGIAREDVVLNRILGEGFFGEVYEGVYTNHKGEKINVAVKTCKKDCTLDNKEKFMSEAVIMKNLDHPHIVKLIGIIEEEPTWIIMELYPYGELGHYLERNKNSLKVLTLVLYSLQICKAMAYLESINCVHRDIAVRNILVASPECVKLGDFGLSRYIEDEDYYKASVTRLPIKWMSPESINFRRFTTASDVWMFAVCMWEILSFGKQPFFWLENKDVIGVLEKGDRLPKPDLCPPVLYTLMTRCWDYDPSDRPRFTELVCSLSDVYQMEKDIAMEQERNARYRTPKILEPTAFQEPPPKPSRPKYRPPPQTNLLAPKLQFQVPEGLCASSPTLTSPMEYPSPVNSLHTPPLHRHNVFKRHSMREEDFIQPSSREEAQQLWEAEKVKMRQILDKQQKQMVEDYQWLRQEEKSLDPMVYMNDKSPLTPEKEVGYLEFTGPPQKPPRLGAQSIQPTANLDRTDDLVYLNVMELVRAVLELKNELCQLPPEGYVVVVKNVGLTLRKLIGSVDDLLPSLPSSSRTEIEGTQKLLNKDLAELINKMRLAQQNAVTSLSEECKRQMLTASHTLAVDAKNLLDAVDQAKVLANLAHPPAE

## CC(C)C(=O)Nc1nc2cc(-c3ccc4c(c3)c(C(=O)NC(C)c3ccccc3)cn4C)ccn2n1 (stereo not drawn) [RI-962]
[1]
  activity at 10 µM: 104%
[2]
  activity at 10 µM: 70%
[3]
  activity at 10 µM: 85%
[4]
  activity at 10 µM: 88%
[5]
  activity at 10 µM: 99%
[6]
  activity at 10 µM: 63%
[7]; read-out: Activity (%), IR(h)
  activity at 10 µM: 103%
[7]; read-out: Activity (%), IR(h), activated
  activity at 10 µM: 89%
[8]
  activity at 10 µM: 86%
[9]
  activity at 10 µM: 120%
[10]
  activity at 10 µM: 98%
[11]
  activity at 10 µM: 72%
[12]
  activity at 10 µM: 93%
[13]
  activity at 10 µM: 92%
[14]; read-out: Activity (%), CDK5/p25(h)
  activity at 10 µM: 92%
[14]; read-out: Activity (%), CDK5/p35(h)
  activity at 10 µM: 118%
[15]
  activity at 10 µM: 101%
[16]
  activity at 10 µM: 93%
[17]
  activity at 10 µM: 94%
[18]
  activity at 10 µM: 105%
[19]
  activity at 10 µM: 101%
[20]
  activity at 10 µM: 97%
[21]
  activity at 10 µM: 88%
[22]
  activity at 10 µM: 77%
[23]
  activity at 10 µM: 89%
[24]
  activity at 10 µM: 79%
[25]
  activity at 10 µM: 106%
